Experimental data: ChEMBL document CHEMBL6134888, “Challenging the "Undruggable"─Targeting STAT3 but Identifying Potent TrkA-Targeted Inhibitors” (J Med Chem, 2025)
pIC50, pKd: −log10 of the molar value.

Tests used:
[1] = Apparent permeability of compound across apical to basolateral side in human Caco-2 cells; type: ADME, cell-based
[2] = Metabolic stability in human liver microsome assessed as intrinsic clearance measured up to 60 mins by HPLC-MS/MS analysis; type: ADME; conditions: liver microsomes, read-out: CLH
[3] = Plasma protein binding in human; type: ADME, cell-free; conditions: read-out: PPB (converted)
[4] = Metabolic stability in human liver microsome assessed as half life measured up to 60 mins by HPLC-MS/MS analysis; type: ADME; conditions: liver microsomes
[5] = target: T1, Tyrosine-protein kinase JAK2 (Homo sapiens, UniProt O60674); assay: Inhibition of JAK2 (unknown origin) by Z-LYTE Kinase assay
T1 sequence (O60674 whole entry): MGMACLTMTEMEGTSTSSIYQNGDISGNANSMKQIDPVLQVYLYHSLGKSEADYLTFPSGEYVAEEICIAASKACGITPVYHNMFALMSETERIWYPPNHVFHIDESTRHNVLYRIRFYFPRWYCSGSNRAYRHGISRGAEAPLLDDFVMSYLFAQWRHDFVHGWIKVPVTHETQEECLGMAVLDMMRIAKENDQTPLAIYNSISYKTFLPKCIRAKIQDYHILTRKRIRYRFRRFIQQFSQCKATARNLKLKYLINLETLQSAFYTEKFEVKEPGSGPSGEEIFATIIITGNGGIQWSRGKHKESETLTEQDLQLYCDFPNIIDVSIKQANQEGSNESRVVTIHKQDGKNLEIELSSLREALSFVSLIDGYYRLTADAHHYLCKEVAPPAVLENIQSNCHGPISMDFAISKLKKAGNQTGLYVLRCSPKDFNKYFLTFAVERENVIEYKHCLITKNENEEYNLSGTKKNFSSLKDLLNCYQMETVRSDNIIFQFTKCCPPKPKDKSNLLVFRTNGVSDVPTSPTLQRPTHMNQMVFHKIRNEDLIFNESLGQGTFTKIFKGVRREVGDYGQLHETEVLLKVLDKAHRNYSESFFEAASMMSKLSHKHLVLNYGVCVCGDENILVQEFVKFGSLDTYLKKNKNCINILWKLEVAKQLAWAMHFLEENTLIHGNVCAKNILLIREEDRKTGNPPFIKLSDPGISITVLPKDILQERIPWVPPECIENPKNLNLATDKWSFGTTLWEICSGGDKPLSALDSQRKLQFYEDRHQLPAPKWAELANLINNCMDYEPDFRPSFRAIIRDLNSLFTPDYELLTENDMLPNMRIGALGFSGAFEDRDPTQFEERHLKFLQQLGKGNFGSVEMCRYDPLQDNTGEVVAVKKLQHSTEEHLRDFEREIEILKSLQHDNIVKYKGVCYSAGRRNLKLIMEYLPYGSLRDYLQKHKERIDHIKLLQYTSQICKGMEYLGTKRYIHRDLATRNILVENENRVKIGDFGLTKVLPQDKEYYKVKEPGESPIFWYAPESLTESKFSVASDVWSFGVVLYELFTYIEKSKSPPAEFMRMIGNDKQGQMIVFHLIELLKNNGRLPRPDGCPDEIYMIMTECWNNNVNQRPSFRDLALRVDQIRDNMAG

LS174T [6] = assay: Cytotoxicity against human LS174T cells assessed as cell viability at 100 uM incubated for 72 hrs by resazurin based analysis relative to control; type: functional; conditions: read-out: Activity
[7] = target: T2, Proto-oncogene tyrosine-protein kinase Src (Homo sapiens, UniProt P12931); assay: Inhibition of SRC (unknown origin) by Z-LYTE Kinase assay
T2 sequence (P12931 2-536 limits assumed): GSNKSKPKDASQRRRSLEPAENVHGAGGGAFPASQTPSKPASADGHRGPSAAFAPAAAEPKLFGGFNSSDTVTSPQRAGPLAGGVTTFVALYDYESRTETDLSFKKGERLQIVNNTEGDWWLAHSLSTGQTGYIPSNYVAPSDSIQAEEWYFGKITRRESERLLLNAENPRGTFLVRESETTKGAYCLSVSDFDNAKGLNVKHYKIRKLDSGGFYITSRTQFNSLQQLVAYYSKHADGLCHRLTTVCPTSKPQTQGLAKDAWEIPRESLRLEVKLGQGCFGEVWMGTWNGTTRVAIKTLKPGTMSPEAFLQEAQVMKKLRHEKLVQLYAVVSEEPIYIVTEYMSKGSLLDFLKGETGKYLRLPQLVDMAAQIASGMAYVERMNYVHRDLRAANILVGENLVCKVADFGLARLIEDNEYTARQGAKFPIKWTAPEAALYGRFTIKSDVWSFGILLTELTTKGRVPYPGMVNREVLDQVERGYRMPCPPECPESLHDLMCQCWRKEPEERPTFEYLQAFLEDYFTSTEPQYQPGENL

[8] = target: BDNF/NT-3 growth factors receptor (Homo sapiens, UniProt Q16620); assay: Binding affinity to TRKB (unknown origin) assessed as dissociation constant by KINOMEscan assay
Chain of BDNF/NT-3 growth factors receptor (Q16620 whole entry): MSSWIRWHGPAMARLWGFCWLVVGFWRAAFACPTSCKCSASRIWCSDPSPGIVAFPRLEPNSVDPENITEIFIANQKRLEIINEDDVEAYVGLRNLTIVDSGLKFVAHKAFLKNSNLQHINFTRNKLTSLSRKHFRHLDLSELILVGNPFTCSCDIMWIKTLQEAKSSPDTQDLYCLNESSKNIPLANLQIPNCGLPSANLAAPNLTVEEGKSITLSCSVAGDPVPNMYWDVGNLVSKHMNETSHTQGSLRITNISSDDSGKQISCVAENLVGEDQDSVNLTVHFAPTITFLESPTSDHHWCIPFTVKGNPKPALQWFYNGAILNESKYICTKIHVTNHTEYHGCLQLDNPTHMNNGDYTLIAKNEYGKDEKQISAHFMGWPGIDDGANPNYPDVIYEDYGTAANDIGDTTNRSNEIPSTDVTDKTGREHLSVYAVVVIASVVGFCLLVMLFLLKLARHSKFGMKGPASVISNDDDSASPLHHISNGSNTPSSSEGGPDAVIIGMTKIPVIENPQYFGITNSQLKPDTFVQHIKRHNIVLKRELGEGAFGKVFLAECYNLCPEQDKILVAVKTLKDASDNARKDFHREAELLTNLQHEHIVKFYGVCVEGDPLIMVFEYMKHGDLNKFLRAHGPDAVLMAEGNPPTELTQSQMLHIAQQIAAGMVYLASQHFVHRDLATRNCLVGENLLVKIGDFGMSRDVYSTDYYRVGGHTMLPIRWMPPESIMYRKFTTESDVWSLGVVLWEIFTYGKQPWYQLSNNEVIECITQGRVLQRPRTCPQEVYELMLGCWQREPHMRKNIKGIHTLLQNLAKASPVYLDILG

MDA-MB-231 [9] = assay: Cytotoxicity against human MDA-MB-231 cells assessed as cell viability at 100 uM incubated for 72 hrs by resazurin based analysis relative to control; type: functional; conditions: read-out: Activity
KM12 = assay: cells; conditions: Homo sapiens, KM12, 72 h
Description: Cytotoxicity against human KM12 cells assessed as inhibition of cell viability incubated for 72 hrs by resazurin based analysis

[10] = target: T3, Receptor-type tyrosine-protein kinase FLT3 (Homo sapiens, UniProt P36888); assay: Inhibition of FLT3 (unknown origin)
T3 sequence (P36888 whole entry): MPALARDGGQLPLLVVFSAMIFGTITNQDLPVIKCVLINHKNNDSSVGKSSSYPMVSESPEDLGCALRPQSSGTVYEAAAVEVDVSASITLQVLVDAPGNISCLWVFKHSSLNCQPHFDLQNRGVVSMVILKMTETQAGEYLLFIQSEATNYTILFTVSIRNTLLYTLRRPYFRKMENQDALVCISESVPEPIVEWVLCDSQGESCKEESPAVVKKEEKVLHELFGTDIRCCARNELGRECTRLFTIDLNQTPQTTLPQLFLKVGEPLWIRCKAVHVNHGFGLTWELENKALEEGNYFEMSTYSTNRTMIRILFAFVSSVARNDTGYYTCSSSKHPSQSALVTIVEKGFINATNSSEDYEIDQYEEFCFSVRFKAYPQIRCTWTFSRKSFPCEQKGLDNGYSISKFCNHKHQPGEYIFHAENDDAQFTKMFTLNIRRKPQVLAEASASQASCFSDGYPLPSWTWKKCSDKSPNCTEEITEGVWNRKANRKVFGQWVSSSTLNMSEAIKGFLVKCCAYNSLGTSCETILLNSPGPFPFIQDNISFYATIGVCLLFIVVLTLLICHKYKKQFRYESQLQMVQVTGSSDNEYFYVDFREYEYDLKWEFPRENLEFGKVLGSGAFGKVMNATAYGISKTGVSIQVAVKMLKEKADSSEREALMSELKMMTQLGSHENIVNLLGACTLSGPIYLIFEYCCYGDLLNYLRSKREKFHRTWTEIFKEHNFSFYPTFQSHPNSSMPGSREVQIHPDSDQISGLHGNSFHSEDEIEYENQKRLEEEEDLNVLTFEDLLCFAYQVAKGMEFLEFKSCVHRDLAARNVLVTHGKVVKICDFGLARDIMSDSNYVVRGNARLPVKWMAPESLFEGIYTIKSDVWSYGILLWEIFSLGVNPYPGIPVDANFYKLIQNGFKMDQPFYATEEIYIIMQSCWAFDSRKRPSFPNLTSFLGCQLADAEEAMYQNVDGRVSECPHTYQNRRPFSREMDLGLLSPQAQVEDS

[11] = target: T1, Tyrosine-protein kinase JAK2; assay: Binding affinity to JAK2 (unknown origin) assessed as dissociation constant
MDA-MB-231 [12] = assay: Cytotoxicity against human MDA-MB-231 cells assessed as effect on cell viability incubated for 72 hrs by resazurin based analysis; conditions: MDA-MB-231, 72 h
[13] = target: T4, Serine/threonine-protein kinase Nek2 (Homo sapiens, UniProt P51955); assay: Inhibition of NEK2 (unknown origin)
T4 sequence (P51955 whole entry): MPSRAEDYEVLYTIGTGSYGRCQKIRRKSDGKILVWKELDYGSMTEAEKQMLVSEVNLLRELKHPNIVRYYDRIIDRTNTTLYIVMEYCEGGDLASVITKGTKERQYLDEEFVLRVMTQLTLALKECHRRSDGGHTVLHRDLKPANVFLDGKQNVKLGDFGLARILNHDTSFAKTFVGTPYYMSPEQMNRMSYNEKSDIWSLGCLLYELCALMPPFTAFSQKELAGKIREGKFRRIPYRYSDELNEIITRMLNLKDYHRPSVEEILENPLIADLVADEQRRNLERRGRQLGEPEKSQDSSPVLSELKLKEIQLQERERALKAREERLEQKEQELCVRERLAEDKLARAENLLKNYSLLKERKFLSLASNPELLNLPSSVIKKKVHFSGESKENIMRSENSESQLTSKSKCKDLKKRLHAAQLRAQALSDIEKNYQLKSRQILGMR

[14] = target: T5, High affinity nerve growth factor receptor (Homo sapiens, UniProt P04629); assay: Binding affinity to TRKA (unknown origin) assessed as dissociation constant
T5 sequence (P04629 whole entry): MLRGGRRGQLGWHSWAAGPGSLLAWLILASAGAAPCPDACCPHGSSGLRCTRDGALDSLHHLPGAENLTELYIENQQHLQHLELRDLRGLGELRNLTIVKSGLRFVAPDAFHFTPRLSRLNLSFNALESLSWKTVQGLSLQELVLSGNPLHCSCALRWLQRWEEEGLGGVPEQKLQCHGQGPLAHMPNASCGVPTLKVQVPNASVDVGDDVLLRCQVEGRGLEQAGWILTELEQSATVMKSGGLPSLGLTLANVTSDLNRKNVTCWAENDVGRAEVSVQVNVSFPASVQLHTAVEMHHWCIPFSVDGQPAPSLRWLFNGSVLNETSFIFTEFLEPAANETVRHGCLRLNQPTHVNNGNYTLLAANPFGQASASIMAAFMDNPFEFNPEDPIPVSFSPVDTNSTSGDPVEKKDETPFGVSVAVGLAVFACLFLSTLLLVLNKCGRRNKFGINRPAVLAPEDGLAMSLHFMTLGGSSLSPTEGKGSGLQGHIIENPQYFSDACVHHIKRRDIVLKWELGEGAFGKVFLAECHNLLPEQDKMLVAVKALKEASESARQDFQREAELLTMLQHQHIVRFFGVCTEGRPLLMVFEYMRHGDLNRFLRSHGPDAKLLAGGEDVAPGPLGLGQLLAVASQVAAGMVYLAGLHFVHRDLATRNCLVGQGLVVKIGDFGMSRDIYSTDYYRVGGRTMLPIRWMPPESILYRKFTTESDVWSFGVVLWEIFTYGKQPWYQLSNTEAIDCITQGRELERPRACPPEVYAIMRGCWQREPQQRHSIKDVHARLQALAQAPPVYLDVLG

LS174T [15] = assay: Cytotoxicity against human LS174T cells assessed as effect on cell viability incubated for 72 hrs by resazurin based analysis
[16] = target: T2, Proto-oncogene tyrosine-protein kinase Src; assay: Binding affinity to SRC (unknown origin) assessed as dissociation constant
[17] = target: T5, High affinity nerve growth factor receptor; assay: Binding affinity to TRKA (unknown origin) assessed as dissociation constant by KINOMEscan assay
[18] = target: Tyrosine-protein kinase ABL1 (Homo sapiens, UniProt P00519); assay: Binding affinity to ABL1 (unknown origin) assessed as dissociation constant
Chain of Tyrosine-protein kinase ABL1 (P00519 whole entry): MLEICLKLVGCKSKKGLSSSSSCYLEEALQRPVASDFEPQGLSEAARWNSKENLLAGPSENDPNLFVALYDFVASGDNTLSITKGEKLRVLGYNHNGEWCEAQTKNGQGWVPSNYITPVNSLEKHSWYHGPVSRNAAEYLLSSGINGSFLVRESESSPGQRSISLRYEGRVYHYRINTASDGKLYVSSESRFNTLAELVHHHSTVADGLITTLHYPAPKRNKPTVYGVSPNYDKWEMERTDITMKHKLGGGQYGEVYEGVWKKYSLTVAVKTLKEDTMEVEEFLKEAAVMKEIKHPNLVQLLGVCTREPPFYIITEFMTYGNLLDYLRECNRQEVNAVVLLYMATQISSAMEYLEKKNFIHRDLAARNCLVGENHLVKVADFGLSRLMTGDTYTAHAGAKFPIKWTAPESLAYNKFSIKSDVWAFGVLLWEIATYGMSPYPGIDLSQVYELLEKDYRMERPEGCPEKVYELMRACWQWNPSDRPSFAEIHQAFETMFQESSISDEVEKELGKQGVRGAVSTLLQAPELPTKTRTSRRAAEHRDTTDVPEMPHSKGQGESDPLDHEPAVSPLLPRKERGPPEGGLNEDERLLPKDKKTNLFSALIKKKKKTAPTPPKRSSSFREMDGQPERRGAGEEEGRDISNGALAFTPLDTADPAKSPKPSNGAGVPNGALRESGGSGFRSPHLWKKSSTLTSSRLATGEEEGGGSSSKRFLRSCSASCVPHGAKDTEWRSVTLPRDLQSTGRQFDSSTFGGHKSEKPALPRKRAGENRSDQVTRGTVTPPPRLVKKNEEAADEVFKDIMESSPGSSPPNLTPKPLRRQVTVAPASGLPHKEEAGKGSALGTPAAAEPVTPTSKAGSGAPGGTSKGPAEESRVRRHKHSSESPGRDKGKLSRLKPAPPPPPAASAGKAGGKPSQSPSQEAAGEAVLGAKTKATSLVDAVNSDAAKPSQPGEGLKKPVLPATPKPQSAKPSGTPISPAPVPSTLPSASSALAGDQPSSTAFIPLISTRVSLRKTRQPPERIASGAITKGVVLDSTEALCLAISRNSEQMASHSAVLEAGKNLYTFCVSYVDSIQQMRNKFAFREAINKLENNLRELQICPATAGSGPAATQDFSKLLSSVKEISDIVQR

[19] = target: MAP kinase-activated protein kinase 2 (Homo sapiens, UniProt P49137); assay: Inhibition of MK2 (unknown origin)
Chain of MAP kinase-activated protein kinase 2 (P49137 whole entry): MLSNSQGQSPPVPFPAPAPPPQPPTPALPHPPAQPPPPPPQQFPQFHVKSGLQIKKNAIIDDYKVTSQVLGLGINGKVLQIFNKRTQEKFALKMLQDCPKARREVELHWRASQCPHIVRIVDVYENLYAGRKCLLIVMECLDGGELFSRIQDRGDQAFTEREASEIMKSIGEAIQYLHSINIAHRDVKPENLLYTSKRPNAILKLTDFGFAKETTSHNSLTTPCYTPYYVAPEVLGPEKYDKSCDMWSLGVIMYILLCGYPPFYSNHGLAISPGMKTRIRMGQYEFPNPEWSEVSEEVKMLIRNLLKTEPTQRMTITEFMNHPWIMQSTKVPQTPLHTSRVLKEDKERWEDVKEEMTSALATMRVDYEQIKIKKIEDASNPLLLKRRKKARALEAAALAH

SMILES | Papp A→B [1] | microsomal CLint [2] | fraction unbound [3] | half-life [4] | pIC50 [5] | viability at 100 µM (LS174T [6]) | pIC50 [7] | pKd [8] | viability at 100 µM (MDA-MB-231 [9]) | pIC50 (KM12) | pIC50 [10] | pKd [11] | pIC50 (MDA-MB-231 [12]) | pIC50 [13] | pKd [14] | pIC50 (LS174T [15]) | pKd [16] | pKd [17] | pKd [18] | pIC50 [19]
CC(=O)Nc1cccc(-c2cnc(N)c(N[C@H](C)c3ccccc3)n2)c1 | 8 ×10⁻⁶ cm/s | 66.2 µL/min/mg | 0.043 | 1.75 h | 6.75 |  |  |  |  |  |  |  |  |  |  |  |  |  |  | 
CC(Nc1nc(-c2cccnc2)cnc1N)c1ccccc1 (racemic) |  |  |  |  | 6.18 | 83% | 5.34 | 6.74 | 43% |  |  |  |  |  |  |  |  |  |  | 
CC(Nc1nc(-c2cccc(N(C)C)c2)cnc1N)c1ccccc1 (racemic) |  | 177 µL/min/mg | 0.004 | 0.653 h |  |  |  | 6.82 |  | > 6.52 | 7.15 | 5.96 | < 5.00 | 6.06 | 7.44 | < 5.00 | 6.19 | 7.28 | 5.28 | 6.12
